Calls of active or inactive are those of the source. The calls are words filed in the database; no cut-off is given here.

Data set [1] relates to HEK293. In words: (§1) Cytotoxicity against HEK293 cells after 48 hrs by MTT assay. Format: cell-based. The following applies: human, hek293, 48 h. (Tetrazolium dyes change colour on reduction, which living cells bring about.)
Data set [2] concerns SiHa. The data set can be described thus: Cytotoxicity against human SiHa cells after 48 hrs by MTT assay. It counts as functional.
The test system of data set [3] is MCF7. In words: Cytotoxicity against human MCF7 cells after 48 hrs by MTT assay. It counts as functional.
Data set [4] concerns HepG2. The data set can be described thus: Cytotoxicity against human HepG2 cells after 48 hrs by MTT assay. It counts as functional.
Data set [5] is described as follows: Antioxidant activity assessed as peroxide reduction rate at 80 uM using H2O2/guaiacol as substrate/hydrogen-donar by ABTS-based assay. It counts as physicochemical.
A short description of data set [6]: Antioxidant activity assessed as peroxide reduction rate at 80 uM using H2O2/GSH as substrate/hydrogen-donar by GPx-based assay. It counts as physicochemical.
A short description of data set [7]: Antioxidant activity assessed as peroxide reduction rate at 80 uM using H2O2/pyrocatechol as substrate/hydrogen-donar. It counts as physicochemical.
Data set [8] is described as follows: Antioxidant activity assessed as electrochemical reduction using glass carbon electrode by cyclic voltammetric analysis. It counts as physicochemical.
Data set [9] can be described thus: Antioxidant activity assessed as oxidation potential using glass carbon electrode by cyclic voltammetric analysis. It counts as physicochemical.
Data set [10] can be described thus: Antioxidant activity assessed as electrochemical reduction using Au electrode by cyclic voltammetric analysis. Format: physicochemical.
Data set [11] can be described thus: Antioxidant activity assessed as peroxide reduction rate at 80 uM using H2O2/4-aminoantipyrine as substrate/hydrogen-donar. It counts as physicochemical.
A short description of data set [12]: Antioxidant activity assessed as peroxide reduction rate at 80 uM using H2O2/pyrogallol as substrate/hydrogen-donar by ABTS-based assay. It counts as physicochemical.
Data set [13] can be described thus: Antioxidant activity assessed as oxidation potential using Au electrode by cyclic voltammetric analysis. It counts as physicochemical.
Data set [14] in a line: as §1. It counts as cell-based. The following applies: human, HEK293 cells.
Data set [15] deals with HEK293. In words: Selectivity index, ratio CC50 for HEK293 cells to CC50 for human HepG2 cells. It counts as functional.
Data set [16] deals with HEK293. In words: Selectivity index, ratio CC50 for HEK293 cells to CC50 for human MCF7 cells. It counts as functional.
Data set [17] deals with HEK293. In words: Selectivity index, ratio CC50 for HEK293 cells to CC50 for human SiHa cells. Format: functional.

As to `C=CCN1C(=O)/C(=C/c2ccccn2)N=C1SC`, the CC50 entry was “Not Active” in data set [1]; 102 µM in data set [2]; 56.7 µM in data set [4] (HepG2, 48 h). Moreover, the CC50 entry in data set [3] was “inactive”.
For the compound `O=C1/C(=C/c2ccccn2)NC(=[Se])N1C1CCCCC1`, the Activity in data set [5] is 0 µM/min; in data set [6], 138 µM/min; in data set [7], 0 µM/min; in data set [8], -2.2 V; in data set [9] it was 1.16 V; in data set [10], -1.81 V. Also, the results for the Activity in [11], in data set [12] and in [13] were 3 µM/min, 0 µM/min and 1.23 V, respectively.
Regarding `O=c1c2ccccc2[se]n1-c1ccccc1` [EBSELEN], the Activity in data set [6] came to 140 µM/min.
Consider `C=CCN1C(=O)/C(=C/c2ccccn2)NC1=S`, for which the Activity in [5], in [6], in data set [7], in data set [11] and in [12] was 0 µM/min throughout. Also, the CC50 result in [1] is given as “Not Active”. Besides, the CC50 entry in data set [2], in data set [3] and in data set [4] was “inactive” each time.
For `C=CCN1C(=O)/C(=C/c2ccccn2)N=C1[Se]C`, the Activity in data set [5], in [6], in data set [7], in data set [11] and in data set [12] was 0 µM/min in each case. The CC50 at 48 h in data set [14] came out at 12.6 µM. The CC50 in [2] came to 3.66 µM; in data set [3] (MCF7, 48 h) it was 7.18 µM; in data set [4] (HepG2, 48 h), 6.62 µM. Further, the “Selectivity Index” value in [15], in [16] and in [17] was >2 throughout.
As for `C=CCN1C(=O)CNC1=[Se]`, the midpoint of cytotoxicity in [14], the CC50 at 48 h, lay at 10.3 µM. In addition, the CC50 in data set [2] turned out to be 12.7 µM; in [3] (MCF7, 48 h), 44.1 µM; in [4] (HepG2, 48 h) it was 16.4 µM.
On to `C=CCN1C(=O)/C(=C/c2ccccn2)NC1=[Se]`, for which the Activity in data set [5] was 0 µM/min; in data set [6] it was 79 µM/min; in data set [7], 0 µM/min; in data set [8] it was -2.15 V; in [9] it was 1.2 V; in data set [10], -1.79 V. The Activity in [11] amounted to 0 µM/min; in data set [12] it was 0 µM/min; in [13], 1.21 V. In data set [14], the CC50 at 48 h worked out at 42.6 µM. Besides, the CC50 came to 23.6 µM in data set [2]; 31.2 µM in data set [3] (MCF7, 48 h); 29.8 µM in [4] (HepG2, 48 h). The “Selectivity Index” value in [15], in [16] and in data set [17] was >2 throughout.
As to `CCOC(=O)CNC(=[Se])NC1CCCCC1`, the Activity in data set [5] was 0 µM/min; in data set [6], 82 µM/min; in data set [7], 1.3 µM/min; in [11], 0 µM/min; in [12] it was 0 µM/min.
`C=CCN1C(=O)CNC1=S`: the CC50 at 48 h in data set [14] was 58.2 µM. The half-maximal cytotoxic concentration (CC50) amounted to 42.4 µM in [2]; 35.2 µM in data set [3] (MCF7, 48 h); 40.7 µM in [4] (HepG2, 48 h).
Regarding `O=C1/C(=C/c2ccccn2)N=C([Se]CC[Se]C2=N/C(=C\c3ccccn3)C(=O)N2C2CCCCC2)N1C1CCCCC1`, the Activity in data set [8] was -2.61 V; in [9] it was 1.46 V; in [10] it was -1.86 V; in data set [13], 1.28 V.

Usually CC50 stands for the concentration giving 50% cytotoxicity.

For the origin of these results see ChEMBL document CHEMBL3751789, “Synthesis, isomerization and biological activity of novel 2-selenohydantoin derivatives” (Bioorg Med Chem, 2016).
